Legend:
[1] = target: T1, human SSTR3 (Homo sapiens (Human), UniProt P32745); test: SSTR3 functional antagonist assay (cAMP, FSK + SS-14, CHO cells); type: cell-based; details: 3.5 μM FSK + 100 nM SS-14; more active isomer
Method: The effects of compounds that bind to human and murine SSTR3 with various affinities on the functional activity of the receptor were assessed by measuring cAMP production in the presence of Forskolin (FSK) along or FSK plus SS-14 in SSTR3 expressing CHO cells. FSK acts to induce cAMP production in these cells by activating adenylate cyclases, whereas SS-14 suppresses cAMP production in the SSTR3 stable cells by binding to SSTR3 and the subsequent inhibition of adenylate cyclases via an alpha subunit of GTP-binding protein (Gαi).
To measure the antagonism activity of the compounds, we pre-incubated the human or mouse SSTR3 stable CHO cells with the compounds for 15 rain, followed by a one-hour incubation of the cells with a mixture of 3.5 μM FSK+100 nM SS-14 (in the continuous presence of the compounds). The amount of cAMP produced during the incubation was also quantified with the Lance cAMP assay. The antagonism activity of each compound was reflected both by % Inhibition (its maximum ability to block the action of SS-14) and an EC50 value which is the concentration of the test compound required to suppress the effect of 100 nM SS-14 by 50%. The % Inhibition of each compound was calculated using the following formula: % Inhibition=[1−(unknown cAMP/FSK+SS-14 cAMP)]×100

[2] = target: hERG potassium ion channel (Homo sapiens (Human), UniProt Q12809); test: MK-499 binding; details: more active isomer
Chain of hERG potassium ion channel (Q12809 whole entry): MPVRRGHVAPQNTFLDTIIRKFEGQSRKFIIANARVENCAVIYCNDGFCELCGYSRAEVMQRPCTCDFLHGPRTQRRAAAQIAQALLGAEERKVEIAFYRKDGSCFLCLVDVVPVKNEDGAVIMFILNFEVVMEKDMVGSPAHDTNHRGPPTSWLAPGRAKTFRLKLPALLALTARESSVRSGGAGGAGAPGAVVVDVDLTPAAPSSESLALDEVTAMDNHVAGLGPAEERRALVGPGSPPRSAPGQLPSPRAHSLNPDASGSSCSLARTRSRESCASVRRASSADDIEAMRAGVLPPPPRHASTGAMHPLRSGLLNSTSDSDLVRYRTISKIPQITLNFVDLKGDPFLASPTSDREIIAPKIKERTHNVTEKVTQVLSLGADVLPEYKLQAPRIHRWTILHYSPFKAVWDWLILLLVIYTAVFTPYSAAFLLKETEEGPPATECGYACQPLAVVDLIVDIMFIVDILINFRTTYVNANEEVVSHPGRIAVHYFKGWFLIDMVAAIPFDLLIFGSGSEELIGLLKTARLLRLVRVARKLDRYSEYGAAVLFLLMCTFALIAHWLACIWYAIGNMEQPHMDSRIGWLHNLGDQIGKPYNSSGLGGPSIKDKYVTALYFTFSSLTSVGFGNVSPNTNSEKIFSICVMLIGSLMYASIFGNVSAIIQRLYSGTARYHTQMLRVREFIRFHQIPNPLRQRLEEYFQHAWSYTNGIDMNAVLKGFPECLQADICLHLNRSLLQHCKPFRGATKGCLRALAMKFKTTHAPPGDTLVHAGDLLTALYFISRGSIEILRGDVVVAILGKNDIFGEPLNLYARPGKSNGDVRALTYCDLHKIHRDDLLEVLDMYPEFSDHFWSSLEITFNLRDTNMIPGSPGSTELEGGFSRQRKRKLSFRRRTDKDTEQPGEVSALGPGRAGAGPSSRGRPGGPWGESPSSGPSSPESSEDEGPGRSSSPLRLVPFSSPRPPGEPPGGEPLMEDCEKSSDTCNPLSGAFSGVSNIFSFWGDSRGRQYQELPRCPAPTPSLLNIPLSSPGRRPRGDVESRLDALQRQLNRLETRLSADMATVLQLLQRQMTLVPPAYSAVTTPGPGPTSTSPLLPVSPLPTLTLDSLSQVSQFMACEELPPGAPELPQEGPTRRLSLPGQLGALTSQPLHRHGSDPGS

[3] = target: T1, human SSTR3; test: SSTR binding filtration assay (SSTR3); details: (3-125I-Tyr11)-SRIF-14 radioligand, CHO-K1 membranes; more active isomer
Method: The receptor-ligand binding assays of all 5 subtype of SSTRs were performed with membranes isolated from Chinese hamster ovary (CHO)-K1 cells stably expressing the cloned human somatostatin receptors in 96-well format as previous reported. (Yang et al. PNAS 95:10836-10841, 1998, Birzin et al. Anal. Biochem. 307:159-166, 2002.) The stable cell lines for SSTR1-SSTR5 were developed by stably transfecting with DNA for all five SSTRs using Lipofectamine. Neomycin-resistant clones were selected and maintained in medium containing 400 μg/mL G418 (Rohrer et al. Science 282:737-740, 1998).
Binding assays were performed using (3-^125I-Tyr11)-SRIF-14 as the radioligand (used at 0.1 nM) and The Packard Unifilter assay plate. The assay buffer consisted of 50 mM TrisHCl (pH 7.8) with 1 mM EGTA, 5 mM MgCl2, leupeptin (10 μg/mL), pepstatin (10 μg/mL), bacitracin (200 μg/mL), and aprotinin (0.5 μg/mL). CHO-K1 cell membranes, radiolabeled somatostatin, and unlabeled test compounds were resuspended or diluted in this assay buffer. Unlabeled test compounds were examined over a range of concentrations from 0.01 nM to 10,000 nM. The Ki values for compounds were determined as described by Cheng and Prusoff Biochem Pharmacol. 22:3099-3108 (1973).

[4] = target: T1, human SSTR3; test: SSTR3 binding Scintillation Proximity Assay (SPA); details: 125I-SS14 radioligand, CHO-K1 membranes; more active isomer
Method: The receptor-ligand binding Scintillation Proximity Assay (SPA) (N. D. Cook. Drug Discovery Today 1 (1996), pp. 287-294) for SSTR3 was performed with membranes isolated from Chinese hamster ovary (CHO)-K1 cells stably expressing the cloned human somatostatin receptors. Binding assays were performed in 384 well format using ^125I-SS14 as the radioligand for SSTR3. The assay buffer consisted of 50 mM TrisHCl (pH 7.8) with 1 mM EGTA, 5 mM MgCl2, leupeptin (10 μg/mL), pepstatin (10 μg/mL), bacitracin (200 μg/mL), and aprotinin (0.5 μg/mL). CHO-K1 cell membranes were prebound to SPA beads and incubated with unlabelled test compounds and radiolabeled somatostatin in assay buffer. After 5 hours at room temperature, cpm/well was determined. Test compounds were examined in 10 point titrations over a range of concentrations from 0.00001 nM to 1200 nM. Percent inhibition was determined for each data point using binding in the presence of DMSO as the maximum achievable value. The results were plotted using 4 parameter fit and the inflection point reflecting 50% of the maximum inhibition was reported as the IC50.

T1 sequence (P32745 whole entry): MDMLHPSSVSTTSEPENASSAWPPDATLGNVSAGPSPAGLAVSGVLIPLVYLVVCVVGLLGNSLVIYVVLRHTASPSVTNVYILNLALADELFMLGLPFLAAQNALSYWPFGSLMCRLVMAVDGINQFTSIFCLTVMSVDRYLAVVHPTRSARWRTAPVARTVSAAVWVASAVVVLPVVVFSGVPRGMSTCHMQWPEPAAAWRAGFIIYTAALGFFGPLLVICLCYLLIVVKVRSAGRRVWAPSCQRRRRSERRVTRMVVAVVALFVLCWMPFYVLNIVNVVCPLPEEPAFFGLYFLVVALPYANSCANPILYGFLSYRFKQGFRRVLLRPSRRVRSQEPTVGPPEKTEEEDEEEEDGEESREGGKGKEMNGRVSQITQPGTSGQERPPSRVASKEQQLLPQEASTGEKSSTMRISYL

| EC50 [1] | Ki [3] | IC50 [4] | Structure (SMILES) | IC50 [2] |
| --- | --- | --- | --- | --- |
| 0.6 nM | 0.3 nM |  | COC1CCC(C2(c3nnc(C)o3)NC(c3nc(-c4ccc(F)c(C)n4)c[nH]3)Cc3c2[nH]c2ccccc32)CC1 (stereo not shown) [Example 18] | 17500 nM |
| 0.7 nM | 0.6 nM |  | Cc1nc(-c2c[nH]c([C@H]3Cc4c([nH]c5ccccc45)C(c4nnc(C(C)C)o4)(C4CCOCC4)N3)n2)ccc1F (stereo partly shown) [Example 19] | 16000 nM |
| 4 nM | 0.9 nM | 4.6 nM | Cc1nnc(C2(C3CCCO3)N[C@@H](c3nc(-c4ccc(F)c(C)n4)c[nH]3)Cc3c2[nH]c2ccccc32)o1 (stereo partly shown) [Example 20] | 17000 nM |
| 1 nM | 0.4 nM |  | COCCOCC1(c2nnc(C)o2)N[C@@H](c2nc(-c3ccc(F)c(C)n3)c[nH]2)Cc2c1[nH]c1ccccc21 (stereo partly shown) [Example 12] | 27700 nM |
| 3.1 nM |  | 1.7 nM | Cc1nnc(C2(C3CCCCO3)N[C@@H](c3nc(-c4ccc(F)c(C)n4)c[nH]3)Cc3c2[nH]c2ccccc32)o1 (stereo partly shown) [Example 21] | 14600 nM |
| 0.6 nM | 0.4 nM |  | COCCOCC1(c2nnc(C(C)C)o2)N[C@@H](c2nc(-c3ccc(F)c(C)n3)c[nH]2)Cc2c1[nH]c1ccccc21 (stereo partly shown) [Example 15] | 19200 nM |
| 0.5 nM | 0.5 nM |  | COCCOCC1(c2nnc(C3CCOCC3)o2)N[C@@H](c2nc(-c3ccc(F)c(C)n3)c[nH]2)Cc2c1[nH]c1ccccc21 (stereo partly shown) [Example 13] | 19600 nM |
| 2.5 nM | 2.6 nM |  | CCOCC1(c2nnc(C(C)(C)C)o2)N[C@@H](c2nc(-c3ccc(F)cn3)c[nH]2)Cc2c1[nH]c1ccccc21 (stereo partly shown) [Example 6] | 17900 nM |
| 0.9 nM | 0.9 nM |  | CCOCC1(c2nnc(CCOC)o2)N[C@@H](c2nc(-c3ccc(F)c(C)n3)c[nH]2)Cc2c1[nH]c1ccccc21 (stereo partly shown) [Example 7] | 23200 nM |
| 3.5 nM | 2.7 nM |  | CCOCC1(c2nnc(CCOC)o2)N[C@@H](c2nc(-c3ccc(F)cn3)c[nH]2)Cc2c1[nH]c1ccccc21 (stereo partly shown) [Example 5] | 16500 nM |
| 0.7 nM | 0.5 nM |  | CCOCC1(c2nnc(C3(C)CCCO3)o2)N[C@@H](c2nc(-c3ccc(F)c(C)n3)c[nH]2)Cc2c1[nH]c1ccccc21 (stereo partly shown) [Example 11] | 19200 nM |
| 2.4 nM | 2.7 nM |  | COCCOCC1(c2nnc(C3CCOCC3)o2)N[C@@H](c2nc(-c3ccc(F)cn3)c[nH]2)Cc2c1[nH]c1ccccc21 (stereo partly shown) [Example 10] | 23400 nM |
| 8.5 nM | 0.6 nM |  | [2H]C([2H])([2H])COCC1(c2nnc(C)o2)N[C@@H](c2nc(-c3ccc(F)c(C)n3)c[nH]2)Cc2c1[nH]c1ccccc21 (stereo partly shown) [Example 16] | 22300 nM |
| 1.3 nM | 0.4 nM |  | CCOCC1(c2nnc(C(C)C)o2)N[C@@H](c2nc(-c3ccc(F)c(C)n3)c[nH]2)Cc2c1[nH]c1ccccc21 (stereo partly shown) [Example 14] | 18600 nM |
| 3.7 nM | 1.4 nM |  | COCCOCC1(c2nnc(C(C)(C)C)o2)N[C@@H](c2nc(-c3ccc(F)cn3)c[nH]2)Cc2c1[nH]c1ccccc21 (stereo partly shown) [Example 8] | 19700 nM |
| 1.7 nM | 1.8 nM |  | COC1CC(C2(c3nnc(C)o3)N[C@@H](c3nc(-c4ccc(F)c(C)n4)c[nH]3)Cc3c2[nH]c2ccccc32)C1 (stereo partly shown) [Example 17] | 21600 nM |
| 1.57 nM |  | 1.2 nM | [2H]C([2H])([2H])OC1CC2C(C1)C2C1(c2nnc(C)o2)N[C@@H](c2nc(-c3ccc(F)c(C)n3)c[nH]2)Cc2c1[nH]c1ccccc21 (stereo partly shown) [Example 22] | 22800 nM |
| 5.1 nM | 2.5 nM |  | CCOCC1(c2nnc(C(C)C)o2)N[C@@H](c2nc(-c3ccc(F)cn3)c[nH]2)Cc2c1[nH]c1ccccc21 (stereo partly shown) [Example 9] | 20200 nM |

— US8754099B2, “Oxadiazole beta carboline derivatives as antidiabetic compounds” (Merck Sharp & Dohme Corp, priority 2010, dated 2014)
